From publication PMC9649612, “Molecular docking and biochemical validation of (-)-syringaresinol-4-O-β-D-apiofuranosyl-(1→2)-β-D-glucopyranoside binding to an allosteric site in monoamine transporters” (Frontiers in Pharmacology, 2022)

Assays:
[1] = target: T1, WT-hDAT (Homo sapiens, UniProt Q01959); test: APP+ transport (uptake) in HeLa cells expressing WT-hDAT; type: cell-based; conditions: hDAT; kinetic analysis
T1 construct: expressed in transfected cells; host or cells: HeLa
Experimental: (§1) HeLa cells were cultured in Dulbecco’s Modified Eagle’s Medium supplemented with 10% fetal bovine serum, 100 units/ml penicillin, and 100 μg/ml streptomycin at 37°C in a humidified 5% CO2 incubator. Cells were plated in a 6-well culture plate and grown overnight. Cells at ∼70% confluence were transfected with hSERT, hDAT, or hNET cDNA in pcDNA3.1 by lipofectamine 2000. Transfected cells were incubated for 24 h at 37°C with 5% CO2 and then transferred into a 12-well plate placed with polylysine coated slides. After grown for additional 12–16 h, the cells were assayed for APP^+ or ASP^+ fluorescence image acquisition.
(§2) The cells expressing WT or mutants of hSERT, hDAT, or hNET were wet mounted on polylysine coated glass slides in 12-well plates and applied for the indicated treatments. […] The extent of APP^+ accumulated in the cells was determined by confocal imaging analysis. ASP^+ binding to SERT in the cell membrane was measured with digitonin-permeabilized cells ([Li M. et al., 2022a]). […] After removing excess ASP^+ by rapid washing three times, ASP^+ binding was determined by confocal imaging analysis.
(§3) Images were analyzed using Zen Blue software.
(§4) Nonlinear regression fits of experimental and calculated data were performed with Origin (Origin Lab). […]

[2] = target: T2, WT-hNET (Homo sapiens, UniProt P23975); test: APP+ transport (uptake) in HeLa cells expressing WT-hNET; type: cell-based; conditions: hNET; kinetic analysis
T2 construct: expressed in transfected cells; host or cells: HeLa
Experimental: as §1, §2, §3, §4

[3] = target: T3, WT-hSERT (Homo sapiens, UniProt P31645); design: method as in our previous experiments; conditions: ref our previous experiments, read-out: Km for APP+ transport; cited from earlier work
T3 construct: expressed in transfected cells; host or cells: HeLa (ATCC CCL-2), transient, pcDNA3.1
T3 sequence (P31645 whole entry): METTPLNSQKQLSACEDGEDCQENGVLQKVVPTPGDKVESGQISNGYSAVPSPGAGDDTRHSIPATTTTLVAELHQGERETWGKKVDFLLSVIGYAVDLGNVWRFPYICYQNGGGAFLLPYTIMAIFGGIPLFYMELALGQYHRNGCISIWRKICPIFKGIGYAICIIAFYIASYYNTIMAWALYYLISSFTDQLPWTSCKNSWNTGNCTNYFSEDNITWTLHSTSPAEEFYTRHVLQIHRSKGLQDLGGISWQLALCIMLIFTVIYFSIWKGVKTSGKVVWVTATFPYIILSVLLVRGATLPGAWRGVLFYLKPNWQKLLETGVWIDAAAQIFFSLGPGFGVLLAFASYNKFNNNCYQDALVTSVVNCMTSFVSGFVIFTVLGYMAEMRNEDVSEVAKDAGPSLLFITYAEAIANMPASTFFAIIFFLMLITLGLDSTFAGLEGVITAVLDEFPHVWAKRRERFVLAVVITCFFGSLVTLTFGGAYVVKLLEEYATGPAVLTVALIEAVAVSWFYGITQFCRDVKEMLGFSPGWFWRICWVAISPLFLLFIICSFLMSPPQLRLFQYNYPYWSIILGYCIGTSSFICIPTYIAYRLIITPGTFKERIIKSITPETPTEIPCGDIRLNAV

T1 sequence (Q01959 whole entry): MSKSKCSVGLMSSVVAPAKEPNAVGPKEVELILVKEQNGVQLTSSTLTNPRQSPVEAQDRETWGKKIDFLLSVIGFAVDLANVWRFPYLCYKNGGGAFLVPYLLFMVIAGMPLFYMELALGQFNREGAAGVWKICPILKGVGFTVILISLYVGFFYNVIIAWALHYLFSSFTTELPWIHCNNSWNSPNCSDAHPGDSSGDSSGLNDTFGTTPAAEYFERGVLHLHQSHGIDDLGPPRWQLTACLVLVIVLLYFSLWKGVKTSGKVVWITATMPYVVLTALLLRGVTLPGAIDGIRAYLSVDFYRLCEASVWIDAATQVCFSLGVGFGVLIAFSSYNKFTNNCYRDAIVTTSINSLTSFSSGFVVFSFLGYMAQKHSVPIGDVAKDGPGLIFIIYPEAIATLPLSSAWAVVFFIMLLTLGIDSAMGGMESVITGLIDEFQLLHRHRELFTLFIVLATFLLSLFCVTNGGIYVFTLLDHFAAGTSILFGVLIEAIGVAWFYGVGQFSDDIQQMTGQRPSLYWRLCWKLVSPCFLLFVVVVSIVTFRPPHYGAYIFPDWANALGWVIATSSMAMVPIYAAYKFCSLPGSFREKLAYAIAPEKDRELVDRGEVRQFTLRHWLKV
T2 sequence (P23975 whole entry): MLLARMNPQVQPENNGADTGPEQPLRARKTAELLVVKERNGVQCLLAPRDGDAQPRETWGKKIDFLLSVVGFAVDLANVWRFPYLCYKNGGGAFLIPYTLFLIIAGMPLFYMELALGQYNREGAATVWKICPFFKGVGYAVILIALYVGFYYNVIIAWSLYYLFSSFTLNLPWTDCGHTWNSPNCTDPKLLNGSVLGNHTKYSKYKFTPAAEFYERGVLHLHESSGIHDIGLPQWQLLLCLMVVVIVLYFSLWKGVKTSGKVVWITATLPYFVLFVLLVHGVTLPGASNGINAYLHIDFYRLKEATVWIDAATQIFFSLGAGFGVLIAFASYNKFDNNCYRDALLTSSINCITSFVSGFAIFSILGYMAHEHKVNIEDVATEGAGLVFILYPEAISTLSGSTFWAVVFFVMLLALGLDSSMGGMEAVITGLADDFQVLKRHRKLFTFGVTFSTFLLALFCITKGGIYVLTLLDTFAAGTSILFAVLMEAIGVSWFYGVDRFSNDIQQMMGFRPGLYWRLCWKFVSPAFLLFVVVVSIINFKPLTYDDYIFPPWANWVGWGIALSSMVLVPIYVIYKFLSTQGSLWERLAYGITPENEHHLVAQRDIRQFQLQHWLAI

## 4-[4-(Dimethylamino)phenyl]-1-methylpyridinium [APP^+, reference compound]
[1]
  Km: 2.89 ± 0.48 µM
[2]
  Km: 1.56 ± 0.22 µM
[3]
  Km: 2.63 ± 0.16 µM
